Data: article PMC4604124, “In Vitro Characterization of the Pharmacological Properties of the Anti-Cancer Chelator, Bp4eT, and Its Phase I Metabolites” (PLoS ONE, 2015)
Where “and” joins values, the source holds several entries; their conditions need not be identical. Equal entries are not always repeated.

How the values were obtained:
[1] = system: caspases 3/7; assay: Caspase activity, luminescent kit, caspases 3/7; assay type: cell-based, human; settings: for kaspáza (3) a 7, průměry (means of raw signal): mean of 4 experiments; for kaspáza (3) a 7, raw signal / kaspáza (3) a 7, signal / viabilita: individual experiments by date
Protocol: To assess the effect of the compounds on caspase activity, MCF-7 cells were incubated with 100 nM Bp4eT or its metabolites for 3, 24 or 72 h/37°C in 96-well plates, as described above. The cells were then lysed by adding 100 μL of cold lysis buffer (100 mM HEPES, 10 mM CHAPS, 10 mM D-L-dithiothreitol, pH 7.4) to 100 μL of medium in each well. Lysates were immediately frozen at -80°C. Thawed lysates were used to assess caspase activity using luminescent kits for caspases 3/7, 8 and 9 (Promega, Madison, WI, USA). The luminescence was measured using the Tecan Infinite 200M plate reader. Caspase activity in the experimental groups was corrected according to the cellular viability of each group and expressed as a percentage of activity of the untreated control (100%).

[2] = system: A549 human lung adenocarcinoma cells; assay: MTT cytotoxicity assay, A549 cells; assay type: cell-based; settings: for IC50: MTT
Protocol: For cytotoxicity experiments, cancer cells were seeded at a density of 5,000 (MCF-7), 10,000 (HL-60) or 2,000 cells/well (HCT116 and A549) in 96-well plates (TPP) for 24 h/37°C prior to the addition of examined agents. The non-cancerous cells, 3T3 and H9c2 cells, were cultured for 24 h/37°C in 96-well plates at a density of 10,000 cells/well, the medium was then changed to serum- and pyruvate-free DMEM (Sigma-Aldrich) and incubated with the cells for another 24 h/37°C. The cytotoxic effects of Bp4eT and its metabolites were studied at different concentrations after a 72 h/37°C incubation. In order to aid the dissolution of the lipophilic ligands, 0.1% dimethyl sulfoxide (v/v) (DMSO; Sigma-Aldrich) was present in the culture medium of all groups. At this concentration, DMSO had no effect on cellular proliferation or viability.
The viability of cells were determined using an MTT assay (Sigma-Aldrich) according to previously established methods. The optical density of soluble MTT was measured at λ = 570 nm, subtracting the λ = 690 nm background using a Tecan Infinite 200M plate reader (Tecan Group, Männedorf, Switzerland). The viability or proliferation of experimental groups was expressed as a percentage of the untreated controls (100%).
SigmaStat for Windows 3.5 (Systat Software, San Jose, CA, USA) statistical software package was utilized to analyze results. The data are expressed as the mean ± SD of a given number of experiments. Statistical significance was determined using a one-way ANOVA with a Bonferroni post-hoc test or Student’s t-test. The results were considered to be statistically significant when p < 0.05. The IC50 values were calculated using CalcuSyn 2.0 software (Biosoft, Cambridge, UK). Cell cycle analysis was evaluated using MultiCycle AV Software (Phoenix Flow Systems, San Diego, CA, USA).

With `CCNC(=S)NN=C(c1ccccc1)c1ccccn1` [Bp4eT, 2-benzoylpyridine 4-ethyl-3-thiosemicarbazone] the “kaspáza (3) a 7, signal / viabilita, průměry” value ([1]; 3 hodiny, normalised to viability, mean) was 16.7783, the “kaspáza (3) a 7, % kontroly” value ([1]; 24 hodin (24 h), % of control) was 107.61% and the “kaspáza (3) a 7, průměry (means of raw signal)” value ([1]; 24 hodin (24 h)) was 2465.5. The “kaspáza (3) a 7, raw signal” value ([1]; 24 hodin) was 2823.5 and 2154.5 and 2683 and 2201, the “kaspáza (3) a 7, raw signal, průměry” value ([1]; 24 hodin, mean) was 2465.5 and the “kaspáza (3) a 7, % kontroly” value ([1]; 24 hodin, mean, normalised to viability) was 203.48 % kontroly. For the same compound, the “kaspáza (3) a 7, signal / viabilita” value ([1]; 24 hodin, normalised to viability) was 53.4249 and 40.7664 and 50.7664 and 41.6462, the “kaspáza (3) a 7, signal / viabilita, průměry” value ([1]; 24 hodin, normalised to viability, mean) was 46.651 and the “kaspáza (3) a 7, % kontroly” value ([1]; 72 hodin (72 h), % of control) was 86.15%. For the same compound, the “kaspáza (3) a 7, průměry (means of raw signal)” value ([1]; 72 hodin (72 h)) was 6404.25, the “kaspáza (3) a 7, raw signal” value ([1]; 72 hodin) was 10190.5 and 6963 and 3947 and 4516.5 and the “kaspáza (3) a 7, raw signal, průměry” value ([1]; 72 hodin, mean) was 6404.25. The “kaspáza (3) a 7, % kontroly” value ([1]; 72 hodin, mean, normalised to viability) was 318.49 % kontroly, the “kaspáza (3) a 7, signal / viabilita” value ([1]; 72 hodin, normalised to viability) was 376.172 and 257.032 and 145.7 and 166.722 and the “kaspáza (3) a 7, signal / viabilita, průměry” value ([1]; 72 hodin, normalised to viability, mean) was 236.406. The “Therapeutic index, IC50 non-cancerous cells / IC50 neoplastic cells” value ([2]; 3T3/A549) was 2.2, the “MTT, relative to control (0 = 100)” value ([2]; A549, 2 000 b/j, 3 nM, průměr (mean)) was 92.19 and the “MTT, relative to control (0 = 100)” value ([2]; A549, 2 000 b/j, 3 nM, single experiment (date)) was 91.5535 and 92.8133 and 91.0654 and 88.0734 and 97.4647. For the same compound, the “MTT, relative to control (0 = 100)” value ([2]; A549, 2 000 b/j, 10 nM, průměr (mean)) was 91.72, the “MTT, relative to control (0 = 100)” value ([2]; A549, 2 000 b/j, 10 nM, single experiment (date)) was 91.5177 and 92.1605 and 92.1041 and 86.392 and 96.4421 and the “MTT, relative to control (0 = 100)” value ([2]; A549, 2 000 b/j, 30 nM, průměr (mean)) was 87.89. For the same compound, the “MTT, relative to control (0 = 100)” value ([2]; A549, 2 000 b/j, 30 nM, single experiment (date)) was 87.7056 and 88.2789 and 85.7469 and 83.2321 and 94.498, the “MTT, relative to control (0 = 100)” value ([2]; A549, 2 000 b/j, 100 nM, průměr (mean)) was 69.03 and the “MTT, relative to control (0 = 100)” value ([2]; A549, 2 000 b/j, 100 nM, single experiment (date)) was 72.0253 and 71.8755 and 68.5876 and 61.5642 and 71.0965. The “MTT, relative to control (0 = 100)” value ([2]; A549, 2 000 b/j, 300 nM, průměr (mean)) was 52.20, the “MTT, relative to control (0 = 100)” value ([2]; A549, 2 000 b/j, 300 nM, single experiment (date)) was 56.5532 and 52.1351 and 48.5459 and 51.5538 and the “MTT, relative to control (0 = 100)” value ([2]; A549, 2 000 b/j, 1000 nM, průměr (mean)) was 44.75. The “MTT, relative to control (0 = 100)” value ([2]; A549, 2 000 b/j, 1000 nM, single experiment (date)) was 46.6699 and 42.1761 and 41.9617 and 48.1966, the “MTT, relative to control (0 = 100)” value ([2]; A549, 2 000 b/j, 3000 nM, průměr (mean)) was 30.92 and the “MTT, relative to control (0 = 100)” value ([2]; A549, 2 000 b/j, 3000 nM, single experiment (date)) was 34.7604 and 31.7204 and 27.6953 and 29.4937. For the same compound, the IC50 ([2]; A549, 2 000 b/j, single experiment (date)) was 550 nM and 407 nM and 670 nM, the “Therapeutic index, IC50 non-cancerous cells / IC50 neoplastic cells” value ([2]; H9c2/A549) was 0.9 and the IC50 ([2]; Homo sapiens, A549, 72 h, A549, 72 h/37°C, mean ± SD, n ≥ 4) was 593 ± 148 nM. The IC50 ([2]; Homo sapiens, A549, A549, 2 000 b/j, průměr (mean)) was 593 nM, the IC50 ([2]; Homo sapiens, A549, A549, 2 000 b/j, single experiment (date)) was 744 nM and the “Therapeutic indices, range” value ([2]; against A549 cells (H9c2/A549 and 3T3/A549)) was 0.9–2.2.
